Test results: ChEMBL document CHEMBL1141269, “Pordamacrines A and B, alkaloids from Daphniphyllum macropodum” (2007)

Tested on: Thoracic aorta
Assay: Vasorelaxant activity against norepinephrine-induced contraction in Wistar rat thoracic aorta at 100 uM
Assay type: functional
Design: scale not given: the % may be the effect or the level left

| SMILES | Activity [%] |
| --- | --- |
| COC(=O)[C@@H]1C[C@@]23C4=C(CCC5CN6C[C@@H](C)C(O)(C=CC52CO)C63O)CC[C@@H]41 (some centres not stated) [PORDAMACRINE A] | 50 |
| COC(=O)[C@@H]1C[C@@]23C4=C(CCC5CN6C[C@@H](C)C(C=CC52CO)C63O)CC[C@@H]41 (some centres not stated) [PORDAMACRINE B] | 47.1 |
